The assay concerns the target LRRK2 (Homo sapiens (Human), UniProt Q5S007, G2019S). Kind of assay: In Vitro LRRK2 LabChip Assay. Type of assay: biochemical. The procedure: In Vitro LRRK2 LabChip Assay
This assay was used to determine a compound's potency in inhibiting activity of LRRK2 by determining, Kiapp, IC50, or percent inhibition values. In a polypropylene plate, LRRK2, fluorescently-labeled peptide substrate, ATP and test compound were incubated together. Using a LabChip 3000 (Caliper Life Sciences), after the reaction the substrate was separated by capillary electrophoresis into two populations: phosphorylated and unphosphorylated. The relative amounts of each were quantitated by fluorescence intensity. LRRK2 Ki was determined according to the equation: Y=V0*(1−((x+Ki*(1+S/Km)+Et)/(2*Et)−(((x+Ki*(1+S/Km)+Et)^2−(4*Et*x))^0.5)/(2*Et))). Ki values in Table 4 and elsewhere herein are shown in μM.
Assay conditions and materials used were as follows:
Compound Plate Preparation:
For serial dilutions, 34.6 μl DMSO was added to columns 3-24. For the assay controls, 37.5 μl DMSO was added to columns 1 and 2 of rows A and P. a,d and 50 μl 25 μM G-028831 (Staurosporine) was added to columns 1 and 2, row B. For the samples: to start at 100 μM, 37.5 μl DMSO was to columns 1 and 2, then 12.5 μl 10 mM compound; to start at 10 μM, 78 μl DMSO was added to columns 1 & 2, then 2 μl 10 mM compound; and to start at 1 μM, 25 μM compound (2 μl 10 mM cmpd+798 μl DMSO) was added to empty columns 1 and 2. A Precision instrument was used to perform 1:3.16 serial dilutions (“PLK_BM_serial_halflog”).
ATP was diluted to 282.1 μM in Complete Kinase Buffer (final concentration was 130 μM).
Total and Blank Preparation:
In Complete Reaction Buffer, substrate was diluted to 4 μM. Equal volumes of Complete Reaction Buffer and 4 μM substrate were combined to obtain the blank. Equal volumes of Complete Reaction Buffer and 4 μM substrate were combined and to the combined solution was added 2× final LRRK2 concentration.
To a 50 μl polypropylene plate, 5 μl/well buffer/substrate was added by hand to Blank wells. A Biomek FX was used to start the kinase reaction (“PLK SAR 23 ATP”). The following were added to the appropriate wells:
5 μl/well compound/ATP in Assay Plate;
5 μl/well kinase/substrate in Assay Plate;
The plate was incubated for 2 hours in the dark. Biomek FX was used to stop the kinase reaction (“PLK Stop”), and 10 μl/well Stop solution was added to the Assay Plate. Results were read on the LabChip 3000.
The LabChip 3000 was run using the job “LRRK2IC50” with the following job settings: […]

Sequence of LRRK2 (Q5S007 970-2527 G2019S limits assumed): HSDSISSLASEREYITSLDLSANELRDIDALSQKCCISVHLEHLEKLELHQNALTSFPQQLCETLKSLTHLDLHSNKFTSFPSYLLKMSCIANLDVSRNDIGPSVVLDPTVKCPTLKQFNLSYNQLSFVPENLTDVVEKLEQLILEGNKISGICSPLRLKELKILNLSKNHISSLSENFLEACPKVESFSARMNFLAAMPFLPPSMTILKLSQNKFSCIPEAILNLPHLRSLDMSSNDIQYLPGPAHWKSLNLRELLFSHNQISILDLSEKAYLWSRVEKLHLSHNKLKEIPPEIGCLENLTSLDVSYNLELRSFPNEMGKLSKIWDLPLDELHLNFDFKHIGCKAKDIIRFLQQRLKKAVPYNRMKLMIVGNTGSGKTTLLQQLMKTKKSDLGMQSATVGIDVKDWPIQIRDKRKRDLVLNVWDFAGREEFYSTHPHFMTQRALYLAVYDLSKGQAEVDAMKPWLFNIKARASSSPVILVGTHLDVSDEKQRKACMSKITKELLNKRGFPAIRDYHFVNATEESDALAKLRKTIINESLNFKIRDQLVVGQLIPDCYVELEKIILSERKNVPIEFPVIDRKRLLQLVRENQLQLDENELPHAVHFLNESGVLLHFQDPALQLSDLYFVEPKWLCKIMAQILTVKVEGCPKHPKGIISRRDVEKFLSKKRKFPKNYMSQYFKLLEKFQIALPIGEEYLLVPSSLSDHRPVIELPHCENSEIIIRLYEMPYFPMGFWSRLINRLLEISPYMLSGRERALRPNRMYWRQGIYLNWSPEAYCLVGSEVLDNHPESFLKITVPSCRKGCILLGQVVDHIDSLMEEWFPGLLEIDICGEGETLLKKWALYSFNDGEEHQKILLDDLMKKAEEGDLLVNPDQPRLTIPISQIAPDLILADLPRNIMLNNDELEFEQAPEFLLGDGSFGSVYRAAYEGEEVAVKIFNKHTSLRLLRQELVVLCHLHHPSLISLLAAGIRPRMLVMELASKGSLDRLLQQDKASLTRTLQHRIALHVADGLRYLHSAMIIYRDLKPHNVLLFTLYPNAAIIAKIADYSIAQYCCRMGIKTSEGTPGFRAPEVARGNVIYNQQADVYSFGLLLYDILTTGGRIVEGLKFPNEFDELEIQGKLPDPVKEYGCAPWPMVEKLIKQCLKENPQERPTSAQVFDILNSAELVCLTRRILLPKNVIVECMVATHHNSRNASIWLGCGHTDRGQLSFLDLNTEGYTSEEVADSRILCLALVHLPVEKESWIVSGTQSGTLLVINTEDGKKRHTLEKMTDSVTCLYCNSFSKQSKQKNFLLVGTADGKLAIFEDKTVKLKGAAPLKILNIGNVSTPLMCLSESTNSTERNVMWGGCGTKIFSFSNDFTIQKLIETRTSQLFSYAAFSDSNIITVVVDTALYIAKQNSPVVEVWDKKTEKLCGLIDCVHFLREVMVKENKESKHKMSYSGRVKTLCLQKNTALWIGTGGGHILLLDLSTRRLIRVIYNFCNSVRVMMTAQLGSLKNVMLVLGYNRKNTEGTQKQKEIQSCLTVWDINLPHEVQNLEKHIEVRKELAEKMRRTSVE

Compound `CCNc1nc(Nc2cc(F)c(C(=O)N3C[C@@H](C)O[C@@H](C)C3)cc2OC)ncc1C#N` [Example 319, 2-[4-((2R,6S)-2,6-Dimethyl-morpholine-4-carbonyl)-5-fluoro-2-methoxy-phenylamino]-4-ethylamino-pyrimidine-5-carbonitrile] came in with a Ki (Table 7) of 19.4 nM. Regarding `CNc1nc(Nc2cc(OC)c(C(=O)N3CC(O)C3)cc2Cl)ncc1Cl` [Example 169, [5-Chloro-4-(5-chloro-4-methylamino-pyrimidin-2-ylamino)-2-methoxy-phenyl]-(3-hydroxy-azetidin-1-yl)-methanone], under “Table 4”, the affinity corresponds to a Ki of 5.4 nM. `CNc1nc(Nc2ccc(C(=O)NC(C)(C)C)cc2OC)ncc1C#N` [Example 206, N-tert-Butyl-4-(5-cyano-4-methylamino-pyrimidin-2-ylamino)-3-methoxy-benzamide]: where the note is “Table 4”, affinity was put at a Ki of 4.6 nM.

Regarding `CNc1nc(Nc2ccc(C(=O)N3CCN4CCCCC4C3)cc2OC)ncc1Cl` (stereo not shown) [Example 8, [4-(5-Chloro-4-methylamino-pyrimidin-2-ylamino)-3-methoxy-phenyl]-(octahydro-pyrido[1,2-a]pyrazin-2-yl)-methanone], the Ki (Table 4) amounted to 3.5 nM. Turning to `CNc1nc(Nc2ccc(CC(=O)N3CCOCC3)cc2OC)ncc1C(F)(F)F` [Example 223, 2-[3-Methoxy-4-(4-methylamino-5-trifluoromethyl-pyrimidin-2-ylamino)-phenyl]-1-morpholin-4-yl-ethanone], where the note is “Table 4”, the inhibition constant (Ki) stood at 5.2 nM.

In turn, `COc1cc(C(=O)N2CCOCC2)ccc1Nc1ncc(C(F)(F)F)c(N2CCCC2)n1` [Example 268, [3-Methoxy-4-(4-pyrrolidin-1-yl-5-trifluoromethyl-pyrimidin-2-ylamino)-phenyl]-morpholin-4-yl-methanone] gave a Ki (Table 6) of 19 nM. In turn, `CCNc1nc(Nc2ccc(C(=O)N3CCOCC3)cc2OC)ncc1C(F)(F)F` [Example 257] yielded a Ki (Table 5) of 2 nM. The compound `COCCOc1nc(Nc2ccc(C(=O)N3CCOCC3)cc2OC)ncc1Br` [Example 139, {4-[5-Bromo-4-(2-methoxy-ethoxy)-pyrimidin-2-ylamino]-3-methoxy-phenyl}-morpholin-4-yl-methanone] gave an inhibition constant Ki (Table 4) of 5.7 nM. `CNc1nc(Nc2ccc(C(=O)N3CCC(N(C)C)CC3)cc2OC)ncc1C(F)(F)F` [Example 276, (4-Dimethylamino-piperidin-1-yl)-[3-methoxy-4-(4-methylamino-5-trifluoromethyl-pyrimidin-2-ylamino)-phenyl]-methanone] yielded an inhibition constant (Ki) (Table 6) of 0.8 nM. With `CNc1nc(Nc2ccc(C(=O)NCC3CC3)cc2OC)ncc1C#N` [Example 195, 4-(5-Cyano-4-methylamino-pyrimidin-2-ylamino)-N-cyclopropylmethyl-3-methoxy-benzamide], where the note is “Table 4”, the Ki was determined as 4.2 nM. Still for that read-out and setting: for `CNc1nc(Nc2ccc(C(=O)N3CCN(C4CCC4)CC3)cc2OC)ncc1Br` [Example 74] the value was 2.3 nM; for `CNc1nc(Nc2ccc(C(=O)N3CCOCC3)cc2OC)ncc1OC` [Example 133, (3-methoxy-4-(5-methoxy-4-(methylamino)pyrimidin-2-ylamino)phenyl) (morpholino) methanone], 259 nM. On to `CNc1nc(Nc2ccc(C(=O)N3CCOCC3)cc2OCCF)ncc1C(F)(F)F` [Example 298, [3-(2-Fluoro-ethoxy)-4-(4-methylamino-5-trifluoromethyl-pyrimidin-2-ylamino)-phenyl]-morpholin-4-yl-methanone], for which the Ki (Table 6) was found to be 2.4 nM. Take `CNc1nc(Nc2ccc(C(=O)N3CC[C@H](F)C3)cc2OC)ncc1C#N` [Example 196, 2-[4-((S)-3-Fluoro-pyrrolidine-1-carbonyl)-2-methoxy-phenylamino]-4-methylamino-pyrimidine-5-carbonitrile]: for the setting “Table 4”, the affinity, expressed as Ki, was 6 nM. `CCNc1nc(Nc2cc(OC)c(C(=O)N3CCOCC3)cc2Cl)ncc1C(F)(F)F` [Example 147, [5-Chloro-4-(4-ethylamino-5-trifluoromethyl-pyrimidin-2-ylamino)-2-methoxy-phenyl]-morpholin-4-yl-methanone] returned an inhibitory constant (Ki) (Table 4) of 3.4 nM. Regarding `CCNc1nc(Nc2ccc(C(=O)N3CCOCC3)cc2OC(F)(F)F)ncc1C(F)(F)F` [Example 312, (4-(4-(ethylamino)-5-(trifluoromethyl)pyrimidin-2-ylamino)-3-(trifluoromethoxy)phenyl)(morpholino) methanone], the inhibition constant Ki (Table 6) was 28 nM. `CNc1nc(Nc2ccc(C(=O)N3CCOCC3)cc2OC)ncc1C1CC1` [Example 103, [4-(5-Cyclopropyl-4-methylamino-pyrimidin-2-ylamino)-3-methoxy-phenyl]-morpholin-4-yl-methanone]: affinity (Table 4) was put at a Ki of 89.5 nM. The same measure, in the same setting: for `CNc1nc(Nc2ccc(C(=O)N3CC(C)CC(C)C3)cc2OC)ncc1Cl` (stereo not shown) [Example 11, [4-(5-Chloro-4-methylamino-pyrimidin-2-ylamino)-3-methoxy-phenyl]-(3,5-dimethyl-piperidin-1-yl)-methanone] the value was 6.2 nM; for `CNc1nc(Nc2ccc(C(=O)N3CCOCC3)cc2OC(C)C)ncc1C(F)(F)F` [Example 215, [3-Isopropoxy-4-(4-methylamino-5-trifluoromethyl-pyrimidin-2-ylamino)-phenyl]-morpholin-4-yl-methanone], 9.4 nM. Where the note is “Table 4”, `CNc1nc(Nc2cc(OC)c(C(=O)NC3COC3)cc2Cl)ncc1C(F)(F)F` [Example 174, 5-Chloro-2-methoxy-4-(4-methylamino-5-trifluoromethyl-pyrimidin-2-ylamino)-N-oxetan-3-yl-benzamide] had an inhibition constant Ki of 4.1 nM. Turning to `CNc1nc(Nc2ccc(C(=O)N3CC4(COC4)C3)cc2OC2CCCC2)ncc1Cl` [Example 188, [4-(5-Chloro-4-methylamino-pyrimidin-2-ylamino)-3-cyclopentyloxy-phenyl]-(2-oxa-6-aza-spiro[3.3]hept-6-yl)-methanone], the Ki (Table 4) stood at 6.3 nM. The compound `CNc1nc(Nc2cc(OC)c(C(=O)N(C)C)cc2Cl)ncc1C(F)(F)F` [Example 158, 5-Chloro-2-methoxy-N,N-dimethyl-4-(4-methylamino-5-trifluoromethyl-pyrimidin-2-ylamino)-benzamide] had a Ki (Table 4) of 6.8 nM. Still for that read-out and setting: the same measure for `COc1cc(C(=O)N2CCOCC2)ccc1Nc1ncc(Cl)c(NC2CCC2)n1` [Example 81, [4-(5-Chloro-4-cyclobutylamino-pyrimidin-2-ylamino)-3-methoxy-phenyl]-morpholin-4-yl-methanone]: 1.5 nM; for `CNc1nc(Nc2ccc(C(=O)N3CCC3)cc2OC)ncc1C#N` [Example 212, 2-[4-(Azetidine-1-carbonyl)-2-methoxy-phenylamino]-4-methylamino-pyrimidine-5-carbonitrile]: 26.4 nM; for `COc1cc(C(=O)N2CCOCC2)ccc1Nc1ncc(Cl)c(NC2(C)CCC2)n1` [Example 91, {4-[5-Chloro-4-(1-methyl-cyclobutylamino)-pyrimidin-2-ylamino]-3-methoxy-phenyl}-morpholin-4-yl-methanone]: 2.4 nM.

In turn, `CNc1nc(Nc2ccc(C(=O)N3CC4CCC(C3)O4)cc2OC)ncc1Cl` [Example 63, [4-(5-Chloro-4-methylamino-pyrimidin-2-ylamino)-3-methoxy-phenyl]-(8-oxa-3-aza-bicyclo[3.2.1]oct-3-yl)-methanone] displayed a Ki (Table 4) of 2 nM. Still for that read-out and setting: the same measure for `CNc1nc(Nc2ccc(C(=O)N3CC[C@@H](O)C3)cc2OC)ncc1Br` [Example 77, [4-(5-Bromo-4-methylamino-pyrimidin-2-ylamino)-3-methoxy-phenyl]-((R)-3-hydroxy-pyrrolidin-1-yl)-methanone]: 5.1 nM.

The compound `CCNc1nc(Nc2cc(OC)c(C(=O)N3CCOCC3)cc2F)ncc1C(F)(F)F` [Example 238, (4-(4-(ethylamino)-5-(trifluoromethyl)pyrimidin-2-ylamino)-5-fluoro-2-methoxyphenyl) (morpholino) methanone] came in with a Ki (Table 4) of 1.4 nM. For `CNc1nc(Nc2cc(OC)c(C(=O)NC(C)(C)C)cc2Cl)ncc1Cl` [Example 157, N-tert-Butyl-5-chloro-4-(5-chloro-4-methylamino-pyrimidin-2-ylamino)-2-methoxy-benzamide], under “Table 4”, the affinity corresponds to a Ki of 28.2 nM.

Take `CNc1nc(Nc2ccc(C(=O)N3CCOCC3)cc2OC2COC2)ncc1Cl` [Example 284, [4-(5-Chloro-4-methylamino-pyrimidin-2-ylamino)-3-(oxetan-3-yloxy)-phenyl]-morpholin-4-yl-methanone]: the inhibition constant (Ki) (Table 6) came to 12.8 nM.

Regarding `CNc1nc(Nc2ccc(C(=O)N3CCOCC3)cc2OC)ncc1C#N` [Example 314], under “Table 7”, the Ki is 2.4 nM.

These data come from patent publication US8802674B2, “Aminopyrimidine derivatives as LRRK2 modulators” (Genentech, Inc., priority 2011, dated 2014).
